Experimental data published in patent US12595269B2, “Morpholine-like monoamine releasers” (Solvonis Therapeutics Ireland Holdings Limited, priority 2022, dated 2026).
Like-named read-outs stand apart in the source and are kept apart here.

Columns and labels:
[1] = molecular target: T1, SERT (serotonin transporter) (Homo sapiens, UniProt P31645); assay: SERT uptake scintillation proximity assay, inhibition of [3H]-serotonin uptake in hSERT-CHO cells; type: cell-based; settings: read-out: SERT uptake pIC50 (converted)
T1 construct: expressed in transfected cells; host or cells: CHO
T1 sequence (P31645 whole entry): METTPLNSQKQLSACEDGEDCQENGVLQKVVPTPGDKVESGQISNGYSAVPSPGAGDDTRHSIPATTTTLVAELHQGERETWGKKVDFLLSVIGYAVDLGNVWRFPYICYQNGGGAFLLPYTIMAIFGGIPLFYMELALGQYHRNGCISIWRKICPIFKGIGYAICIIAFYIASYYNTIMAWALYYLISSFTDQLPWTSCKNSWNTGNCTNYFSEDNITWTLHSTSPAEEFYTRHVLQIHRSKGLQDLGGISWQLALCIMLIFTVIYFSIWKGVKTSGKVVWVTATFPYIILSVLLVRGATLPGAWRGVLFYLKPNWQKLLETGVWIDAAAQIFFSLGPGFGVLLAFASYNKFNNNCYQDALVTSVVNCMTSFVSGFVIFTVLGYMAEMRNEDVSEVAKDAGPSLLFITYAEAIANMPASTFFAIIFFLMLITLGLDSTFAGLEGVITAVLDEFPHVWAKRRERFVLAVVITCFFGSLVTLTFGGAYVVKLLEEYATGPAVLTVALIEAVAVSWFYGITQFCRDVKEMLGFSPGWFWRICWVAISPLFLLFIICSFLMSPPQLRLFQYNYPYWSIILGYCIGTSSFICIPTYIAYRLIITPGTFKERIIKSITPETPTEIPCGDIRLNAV
Protocol: Overview: Eighty-eight compounds were tested in SERT (serotonin transporter) and DAT (dopamine transporter) uptake assays (completed as scintillation proximity assays, or SPAs, in a recombinant CHO cell line). Fifty-two compounds were tested in release assays for 5-HT and DA release in rat synaptosomes.
In addition, hSERT-CHO cells were detached using Versene and added at a density of 150,000 cells/mL to the SPA Mixture, which contains the following components in the Assay Buffer described above: 0.5 mg/mL SPA Imaging beads (RPNQ0001, PerkinElmer), 10 μM pargyline and 35 nM of [^3H]-serotonin (NET498, PerkinElmer). The SPA Mixture was added 20 μL/well to 384 well plates containing 0.1 μL/well of test compound in neat DMSO (11 points of 1:5 serial dilution, 0.5% DMSO final), 0.1 μL of DMSO (total uptake), or 0.1 μL of the standard inhibitor indatraline (1 μM, nonspecific uptake). Plates were sealed with a Top-seal A and read using a Microbeta counter (PerkinElmer) after 120 minutes of incubation at room temperature.
For both tests, the raw experimental data (cpm) were elaborated for the determination of pIC50/IC50 values as % inhibition of specific uptake. Concentration-response curves of MDMA, MDDMA, citalopram and GBR-12909 were used as internal standards in all experiments, and the signal window was monitored in each plate performing Z′ calculations, as described in Zhang et al., J. Biomol. Screen., 1999; 4: 67-73.

[2] = Lipophilicity by Chromatographic Hydrophobicity Index (CHI LogD); type: physicochemical
Protocol: Methods and Procedure: The methods employed herein comply with previously described procedures to assure data integrity and adherence to GLP regulations. Briefly, a CHI value was determined by comparing the retention time of a test compound to a linear curve based on a set of calibration compounds with known CHI values. The resultant CHI value can be further converted to a CHI Log D value using an established linear regression equation.
Reference compounds with known CHI values, including theophylline, phenyltetrazole, benzymidazole, colchicine, phenyltheophylline, acetophenone, indole, propiophenone, butyrophenone, valerophenone, were used to create a calibration line. Test compounds (10 mM) were prepared in DMSO on the same day of the experiment, when feasible. For sample preparation, 10 μL of test solution was diluted with 190 μL of a solution of Ammonium Acetate solution (50 mM) and Acetonitrile (1:1) pH7.4, which was then mixed via shaking at room temperature for 10 minutes. Test solutions were compared with the reference compounds via HPLC-UV, as described in Example 19. The gradient was calibrated by determining the retention time of each reference compound on a reverse phase LC system at a pH of 7.4.
The relationship of CHI with retention time is “CHI=Atr+B,” wherein A and B are the constants of a linear plot of CHI against their gradient retention times, and tr is retention time.
The test compounds were analyzed on the same system as the test mix. The equation generated from the calibration line for the reference compounds was then used to determine the unknown CHI value for the test compound. From the CHI value, the Log D was extrapolated according to the following equation, as described in Valko et al, 2001: Log D=0.0525×CHI pH7.4-1.467. Log D represents the log of the partitioning of a chemical compound between the lipid and aqueous phases.

[3] = Plasma protein binding by equilibrium dialysis, rat plasma; type: in vitro ADME, Sprague Dawley (SD) rats; settings: male, Sprague Dawley, pH 7.4
Protocol: Methods and Procedure: This study was performed in agreement with the previously described procedures to assure data integrity and adherence to GLP standards. Plasma protein binding and blood tissue binding of test items (0.5 μM) was determined using biological samples from male Sprague Dawley (SD) rats and humans. […] Dexamethasone was used as a control for lung tissue binding. Various biological samples were spiked with test compounds according to the methods that follow.
Preparation of plasma or blood samples: An appropriate amount of test compound was dissolved in DMSO to yield a 10 mM solution. Further dilutions, to obtain 50 μM working solutions (WS), were then prepared using 50% acetonitrile in Milli-Q water. These 100×WS were used to spike plasma or blood to obtain a final concentration of 0.5 μM. From this initial spiking solution, control samples (n=3), referred to as T=0, were immediately extracted and used to calculate the recovery of the test item.
An equilibrium dialysis method was performed to determine protein binding in the various biological samples described herein. Materials were prepared and methods were in accordance with the following procedures. […]
Dialysis buffer was prepared by dissolving Na2HPO4 8.69 g, KH2PO4 1.90 g, and NaCl 4.11 g in 1 L of MilliQ water, and adjusting the pH to 7.4 with H3PO4. […] In order to control the integrity of the membrane after the dialysis process, the presence of protein was assessed in the buffer compartment. […]
Samples were analyzed in a LC-MS/MS system using an analytical method to monitor the compound to internal standard peak area ratios as representative of the compound concentrations. Alternatively, samples were analyzed by RapidFire.
Protein binding in plasma, blood, brain, and lung tissue samples were determined with the following formula: Afu=Buffer/x, wherein “x” may be plasma, blood, brain, or lung, and “Afu” is the apparent fraction unbound, and the other variables refer to the analyte/internal standard ratio determined in their specific compartment (buffer, plasma, blood, brain homogenate, and lung homogenate); […]

[4] = pH 7.4, as stated in text under Table 10, read-out: calculated Log D values
[5] = pH 7.4, pH 7.4, HPLC-UV, read-out: Chi LogD

Compound	IC50 [1] [nM]	chromatographic logD [2, 4]	chromatographic logD [2, 5]	fraction unbound at 5 h, 0.5 µM [3]
Clc1ccc([C@]23CN[C@H](CO2)C3)cc1Cl (single isomer, unassigned) [516A]	46.8	1.15	0.75	
Clc1ccc([C@@]23CN[C@@H](CO2)C3)cc1Cl (single isomer, unassigned) [518A]	81.3	1.15	0.75	0.106
Clc1ccc(C23CNC(CO2)C3)cc1Cl (centres unmarked) [522A, 1-(3,4-dichlorophenyl)-2-oxa-5-azabicyclo[2.2.1]heptane]	56.2	1.15	0.75	0.12
CNC(C)Cc1ccc2c(c1)OCO2 (centres unmarked) [MDMA, reference compound]		0.29	0.29	> 0.5
